In US5173504A, “Bacteriochlorophyll-a derivatives useful in photodynamic therapy” (Health Research, Inc., priority 1991, dated 1992):

Experiments:
[1] = Beems et al., Photochemistry and Photobiology (1987); cited from earlier work
[2] = light absorption of bchla; format: physicochemical
Excerpt: Bchla is essentially identical to the chlorophyll-a of higher plants except that ring B is in the dihydro form and the vinyl group in ring A is converted to an acetyl group. The wavelength absorption maximum of bchla is about 780 nm and the extinction coefficient in this region is quite high (E780= 75,000). This long wavelength absorption is advantageous because light penetrates tissues 2-3 times more effectively at a wavelength nearly 800 nm versus lower wavelengths, e.g., 630 nm.
Bacteriochlorophyll-a, obtained at >90% purity from Porphyrin Products (Logan, UT) was dissolved at a concentration of 5 mg/ml in Tween-80 (Sigma) by stirring for several hours or overnight. The resulting solution was mixed with 9 volumes of Hank's buffer solution with agitation until all of the detergent solution was dissolved. Any remaining particulate matter is removed by filtration and the concentration of the final solution is determined spectrophotometrically using a 1:100 dilution in distilled water (OD780= 87.3 for 1 mg/ml of concentrate). In general, if the initial solution of bchla is conducted carefully, the resulting formulation has a concentration of bchla of 0.5 mg/ml.

[3] = stability of bchla; format: physicochemical
Excerpt: Bchla is readily obtained by extraction from bacterial sources, and is available commercially from Porphyrin Products, Logan, UT.

[4] = test system: SMT-F tumors; experiment: tumor response to photodynamic treatment in mice transplanted with SMT-F tumors; format: in vivo, DBA2/HaD mice
Description: DBA2/HaD mice were transplanted with SMT-F tumors. When the subcutaneous tumors reached 4.5-5.5 mm in diameter, the mice, in groups of five, were injected intravenously with the bchla solution of Example 1 in doses of 5-30 mg/kg. At a time 1 hour-5 days later, the tumor, previously shaved and depiliated, plus a margin of 2-3 mm was exposed to radiation of a wavelength in the range 630-800 nm using a Spectraphysics argon dye laser with Exciton LDS751 dye, tunable over the 700-800 nm range or a diode laser--e.g., Spectra Diode emitting in the 750-850 nm range or a Xenon arc lamp filtered with an interference filter to pass 90% of the 700 nm light ±60 nm at dose rates of 75-150 mw/cm^2. When the Xenon system was used, mild hyperthermia resulted (42° C. at 160 mW/cm^2). It is not known whether this temperature rise acts synergistically with bchla as has been shown with HpD and its active fraction.
Tumor response is shown in the table of FIG. 1 for the seventh day after light treatment which indicates regression, and at a time point at least 30 days after light treatment, which would indicate cure, if there had been no regrowth.

[5] = cutaneous photosensitivity: response of the foot of the treated mice; format: in vivo; conditions: FIG. 3
Description: One of the undesirable side effects of photodynamic therapy using certain compounds is cutaneous photosensitivity unrelated to the target biological substrate. Accordingly, the effect of the treatment on the photosensitivity of the foot of the treated mice was measured. The response of the foot was measured as erythema and/or edema (or loss of skin or further damage).

[6] = uptake and clearance in tumor (extraction, HPLC); format: in vivo, DBA/2 Ha Mice
Description: (§1) Uptake and clearance of bchla in tumor and liver were measured by extraction of the tumor or liver tissue with 1:1MeOH:CH2 Cl2, followed by HPLC analysis.

[7] = uptake and clearance in liver (extraction, HPLC); format: in vivo, DBA/2 Ha Mice
Description: as §1

[8] = test system: tumors approximately 1 cm in depth; experiment: light penetration: necrotic depth in tumors; format: in vivo; conditions: 20 mg/kg, irradiation after 1 hour, 270 J/cm^2 at 780 nm; histology the day following
Description: Comparison was made using bchla at 20 mg/kg with irradiation after 1 hour at 270 J/cm^2 at 780 nm, and DHE at 5 mg/kg after 1 hour at 270 J/cm^2 at 630 nm. Animals with tumors approximately 1 cm in depth were used in the comparison. Histological sections were obtained the day following treatment, fixed and stained.

Compound	water solubility compared to bacteriochlorophyll-a [1]	wavelength absorption maximum [2]	extinction coefficient (E780) ([2]; 780 nm)	OD780 ([2]; for 1 mg/ml of concentrate, Tween-80/Hank's buffer formulation, measured at 1:100 dilution in distilled water)	oxidation stability [3]	stability in vivo ([3]; in vivo)	loss of magnesium ion in dilute acid ([3]; presence of dilute acid)	tumor response ([4]; 5 mg/kg i.v., irradiated after 2 hours, 670-790 nm range)	tumor response ([4]; 10 mg/kg i.v., irradiated 24 hours after injection, 680-780 nm)	sensitivity of the tumor and the skin of the foot over time [5]	composition of material in tumor ([6]; 24 hours after injection)	composition of material in tumor ([6]; 48 hours after injection)	time of partial conversion to bacteriopheophytin in tumor ([6]; tumor) [h]	time of partial conversion to bacteriopheophytin in liver [7] [h]	necrotic depth [8]
CCC1c2cc3[nH]c4c(c3C)C(=O)C(C(=O)OC)c4c3nc(cc4[nH]c(cc(n2)C1C)c(C(C)=O)c4C)C(C)C3CCC(=O)O (stereo not shown) [bacteriochlorin-a]	enhanced water solubility	–	–	–	–	–	–	–	–	–	–	–	–	–	–
CCC1C2=Cc3c(C)c4c5[n]3[Mg][n]3c(c(C)c(C(C)=O)c3=CC(=N2)C1C)=CC1=NC(=C5C(C(=O)OC)C4=O)C(CCC(=O)O)C1C (stereo not shown) [bacteriochloro-phyllin-a]	enhanced water solubility	–	–	–	–	–	–	–	–	–	–	–	–	–	–
CCC1C2=Cc3c(C)c4c5[n]3[Mg][n]3c(c(C)c(C(C)=O)c3=CC(=N2)C1C)=CC1=NC(=C5C(C(=O)OC)C4=O)C(CCC(=O)OCC=C(C)CCCC(C)CCCC(C)CCCC(C)C)C1C (stereo not shown) [bchla, Bacteriochlorophyll-a]	–	about 780 nm	75,000	87.3	readily oxidized, especially in the presence of light	sufficiently stable in vivo to be an effective phototherapeutic agent	the magnesium ion is readily removed in the presence of dilute acid	good response	good response	the sensitivity of the tumor and the skin of the foot declined concomitantly	demetallized but still contains phytyl	mainly material without phytyl and without Mg	≥ 24	2	approximately 9 mm
